Test results reported in patent US20230062248A1, “METHODS FOR PREDICTING IXABEPILONE RESPONSIVENESS IN CANCER PATIENTS” (Allarity Therapeutics Europe ApS, priority 2020, published 2023).

System: breast cancer patients
Test: Pathological complete remission (pCR) in breast cancer patients treated neoadjuvantly with ixabepilone, split by DRP prediction score (GSE41998)
Assay type: in vivo, human
Settings: pre-treatment biopsy
Description: An mRNA-based predictor of responsiveness to ixabepilone was developed according to the methods of the invention and applied to gene expression data prepared using clinical samples from breast cancer patients, which was downloaded from Gene Expression Omnibus under accession number GSE41998 (FIG. 1). The samples were diagnostic biopsies analyzed with Affymetrix GeneChips. All the genes listed in Table 2 were measured from clinical samples on the Affymetrix GeneChip and their mean expression subtracted from the mean of all the genes in Table 1. The difference (e.g., a difference score) was then compared to a difference score produced using measured levels of the sensitivity and resistance biomarkers of Tables 1 and 2 from a reference population consisting of 279 breast cancer patients participating in a clinical trial having two treatment arms ((1) ixabepilone and (2) paclitaxel treatment), producing a percentile score on a scale from 0 to 100. As part of the clinical trial, biopsy samples from breast cancer patients later treated neoadjuvantly with ixabepilone were collected prior to treatment. Patients' responses to ixabepilone were subsequently compared to predicted ixabepilone sensitivity using the methods disclosed herein. Patients with pathological complete remission (pCR) were predicted using the disclosed methods to be more sensitive to ixabepilone than patients with no pCR (No_pCR; FIG. 1).

## C/C(=C\c1csc(C)n1)[C@@H]1C[C@@H]2O[C@]2(C)CCC[C@H](C)[C@H](O)[C@@H](C)C(=O)C(C)(C)[C@@H](O)CC(=O)N1 [ixabepilone, (1S,3S,7S,10R,11S,12S,16R)-7,11 dihydroxy-8,8,10,12,16-pentamethyl-3-[(1E)-1-methyl-2-(2-methyl-4-thiazolyl)ethenyl] 17-oxa-4-azabicyclo[14.1.0] heptadecane-5,9-dione]
DRP negative (<=50)
  Non responders (no pCR), number of patients: 52
  Responders (pCR), number of patients: 8
DRP positive (>50)
  Non responders (no pCR), number of patients: 45
  Responders (pCR), number of patients: 27
